From PubChem BioAssay (NCI)
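How tested: cells in 96-well plates exposed to compound for 48 hours at five concentrations. The concentration for full growth arrest is given as TGI.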

How the values were obtained:
Experiment in all cases: growth of human tumour cells (NCI), 48 h
[1] = tested on: HCC-2998 colon
[2] = tested on: LOX IMVI melanoma
[3] = tested on: HOP-92 NSCLC
[4] = tested on: HCT-116 colon
[5] = tested on: PC-3 prostate
[6] = tested on: SN12C renal
[7] = tested on: UACC-62 melanoma
[8] = tested on: ACHN renal
[9] = tested on: M14 melanoma
[10] = tested on: UACC-257 melanoma
[11] = tested on: MDA-N
[12] = tested on: SW-620 colon
[13] = tested on: NCI/ADR-RES ovarian
[14] = tested on: KM12 colon
[15] = tested on: DU-145 prostate
[16] = tested on: NCI-H522 lung
[17] = tested on: SF-295 CNS
[18] = tested on: IGROV1 ovarian
[19] = tested on: OVCAR-8 ovarian
[20] = tested on: NCI-H460 lung
[21] = tested on: OVCAR-3 ovarian
[22] = tested on: MCF7 breast
[23] = tested on: MALME-3M melanoma
[24] = tested on: CCRF-CEM leukemia
[25] = tested on: SR leukemia
[26] = tested on: T-47D breast
[27] = tested on: MDA-MB-435
[28] = tested on: SK-MEL-5 melanoma
[29] = tested on: HT29 colon
[30] = tested on: COLO 205 colon
[31] = tested on: CAKI-1 renal
[32] = tested on: EKVX NSCLC
[33] = tested on: RXF 393 renal
[34] = tested on: A549 NSCLC
[35] = tested on: SF-539 CNS
[36] = tested on: SF-268 CNS
[37] = tested on: SK-MEL-28 melanoma
[38] = tested on: UO-31 renal
[39] = tested on: TK-10 renal
[40] = tested on: BT-549 breast
[41] = tested on: OVCAR-5 ovarian
[42] = tested on: U251 CNS
[43] = tested on: HS 578T breast
[44] = tested on: MDA-MB-231 breast
[45] = tested on: SNB-19 CNS
[46] = tested on: OVCAR-4 ovarian
[47] = tested on: HCT-15 colon
[48] = tested on: SNB-75 CNS
[49] = tested on: HL-60(TB) leukemia
[50] = tested on: HOP-62 NSCLC
[51] = tested on: RPMI-8226 leukemia
[52] = tested on: NCI-H226 lung
[53] = tested on: SK-MEL-2 melanoma
[54] = tested on: 786-0 renal
[55] = tested on: MOLT-4 leukemia
[56] = tested on: NCI-H23 lung
[57] = tested on: SK-OV-3 ovarian
[58] = tested on: A498 renal
[59] = tested on: K-562 leukemia
[60] = tested on: KM20L2 colon
[61] = tested on: M19-MEL melanoma
[62] = tested on: DMS 114 small cell lung
[63] = tested on: HOP-18 NSCLC
[64] = tested on: DMS 273 small cell lung
[65] = tested on: SNB-78 CNS
[66] = tested on: DLD-1 colon
[67] = tested on: LXFL 529 NSCLC

## Cc1cc(S(=O)(=O)Nc2n[nH]c(Nc3ccc4ccccc4c3)n2)c(S)cc1Cl
[1]
  TGI: > 100 µM
[2]
  TGI: > 100 µM
[3]
  TGI: > 100 µM
[4]
  TGI: > 100 µM
[5]
  TGI: > 100 µM
[6]
  TGI: > 100 µM
[7]
  TGI: > 100 µM
[8]
  TGI: > 100 µM
[9]
  TGI: > 100 µM
[10]
  TGI: > 100 µM
[11]
  TGI: 39 µM
[12]
  TGI: > 100 µM
[13]
  TGI: > 100 µM
[14]
  TGI: 95 µM
[15]
  TGI: > 100 µM
[16]
  TGI: 84.2 µM
[17]
  TGI: 76.9 µM
[18]
  TGI: > 100 µM
[19]
  TGI: > 100 µM
[20]
  TGI: > 100 µM
[21]
  TGI: 51.7 µM
[22]
  TGI: > 100 µM
[23]
  TGI: > 100 µM
[24]
  TGI: > 100 µM
[25]
  TGI: > 100 µM
[26]
  TGI: > 100 µM
[27]
  TGI: 84.2 µM
[28]
  TGI: > 100 µM
[29]
  TGI: > 100 µM
[30]
  TGI: > 100 µM
[31]
  TGI: 91 µM
[32]
  TGI: > 100 µM
[33]
  TGI: > 100 µM
[34]
  TGI: > 100 µM
[35]
  TGI: 35.1 µM
[36]
  TGI: > 100 µM
[37]
  TGI: > 100 µM
[38]
  TGI: > 100 µM
[39]
  TGI: > 100 µM
[40]
  TGI: > 100 µM
[41]
  TGI: > 100 µM
[42]
  TGI: > 100 µM
[43]
  TGI: 69.9 µM
[44]
  TGI: > 100 µM
[45]
  TGI: > 100 µM
[46]
  TGI: > 100 µM
[47]
  TGI: > 100 µM
[48]
  TGI: > 100 µM
[49]
  TGI: > 100 µM
[50]
  TGI: > 100 µM
[51]
  TGI: > 100 µM
[52]
  TGI: > 100 µM
[53]
  TGI: 73.7 µM
[54]
  TGI: > 100 µM
[55]
  TGI: > 100 µM
[56]
  TGI: > 100 µM
[57]
  TGI: > 100 µM
[58]
  TGI: > 100 µM
[59]
  TGI: > 100 µM

## CC(C)[Si]1(C(C)C)OCC2OC(n3c(C(=O)c4ccccc4)cc(=O)[nH]c3=O)CC2O[Si](C(C)C)(C(C)C)O1 (stereo unspecified)
[1]
  TGI: 3.41 µM
[2]
  TGI: 3.93 µM
[3]
  TGI: 7.14 µM
[4]
  TGI: 9.95 µM
[5]
  TGI: 6.22 µM
[6]
  TGI: 5.5 µM
[7]
  TGI: 7.62 µM
[8]
  TGI: 8.58 µM
[9]
  TGI: 14.4 µM
[10]
  TGI: 6.04 µM
[11]
  TGI: 11.7 µM
[12]
  TGI: 8.32 µM
[13]
  TGI: 26.8 µM
[14]
  TGI: 8.51 µM
[15]
  TGI: 24.6 µM
[16]
  TGI: 3.55 µM
[17]
  TGI: 13.8 µM
[18]
  TGI: 10.1 µM
[19]
  TGI: 4.43 µM
[20]
  TGI: 15.9 µM
[21]
  TGI: 5.09 µM
[22]
  TGI: 8.14 µM
[23]
  TGI: 13.1 µM
[24]
  TGI: 5.12 µM
[25]
  TGI: > 23.8 µM
[26]
  TGI: 16 µM
[27]
  TGI: 10.4 µM
[28]
  TGI: 14 µM
[29]
  TGI: 4.22 µM
[30]
  TGI: 10.8 µM
[31]
  TGI: 17.9 µM
[32]
  TGI: 14.6 µM
[33]
  TGI: 7.37 µM
[34]
  TGI: 20.5 µM
[35]
  TGI: 8.6 µM
[36]
  TGI: 8.26 µM
[37]
  TGI: 15 µM
[38]
  TGI: 6.98 µM
[39]
  TGI: 9.23 µM
[40]
  TGI: 16.5 µM
[41]
  TGI: 10.1 µM
[42]
  TGI: 9.85 µM
[43]
  TGI: 5.5 µM
[44]
  TGI: 5.67 µM
[45]
  TGI: 22.4 µM
[46]
  TGI: 8.36 µM
[47]
  TGI: 7.89 µM
[48]
  TGI: 6.7 µM
[49]
  TGI: > 28.6 µM
[50]
  TGI: 21.3 µM
[51]
  TGI: > 23.3 µM
[52]
  TGI: 5.87 µM
[53]
  TGI: 10.6 µM
[54]
  TGI: 9.87 µM
[55]
  TGI: 4.76 µM
[56]
  TGI: 6.13 µM
[57]
  TGI: 27.2 µM
[58]
  TGI: 24.8 µM
[59]
  TGI: > 100 µM

## CCOC(=O)c1cnc2c(ccc3[nH]cccc32)c1=O
[1]
  TGI: > 100 µM
[2]
  TGI: > 100 µM
[60]
  TGI: > 100 µM
[4]
  TGI: > 100 µM
[6]
  TGI: > 100 µM
[7]
  TGI: > 100 µM
[8]
  TGI: > 100 µM
[9]
  TGI: > 100 µM
[10]
  TGI: > 100 µM
[12]
  TGI: > 100 µM
[14]
  TGI: > 100 µM
[16]
  TGI: > 100 µM
[18]
  TGI: > 100 µM
[19]
  TGI: > 100 µM
[61]
  TGI: > 100 µM
[20]
  TGI: > 100 µM
[62]
  TGI: > 100 µM
[21]
  TGI: > 100 µM
[23]
  TGI: > 100 µM
[24]
  TGI: > 100 µM
[25]
  TGI: > 100 µM
[28]
  TGI: > 100 µM
[29]
  TGI: > 100 µM
[30]
  TGI: > 100 µM
[32]
  TGI: > 100 µM
[33]
  TGI: > 100 µM
[34]
  TGI: > 100 µM
[35]
  TGI: > 100 µM
[36]
  TGI: > 100 µM
[37]
  TGI: > 100 µM
[38]
  TGI: > 100 µM
[39]
  TGI: > 100 µM
[41]
  TGI: > 100 µM
[42]
  TGI: > 100 µM
[63]
  TGI: > 100 µM
[45]
  TGI: > 100 µM
[64]
  TGI: > 100 µM
[46]
  TGI: > 100 µM
[47]
  TGI: > 100 µM
[65]
  TGI: > 100 µM
[48]
  TGI: > 100 µM
[49]
  TGI: > 100 µM
[50]
  TGI: > 100 µM
[66]
  TGI: > 100 µM
[67]
  TGI: > 100 µM
[53]
  TGI: > 100 µM
[54]
  TGI: > 100 µM
[55]
  TGI: > 100 µM
[56]
  TGI: > 100 µM
[57]
  TGI: > 100 µM
[58]
  TGI: > 100 µM
[59]
  TGI: > 100 µM

## CC(NC1CCCC[C@H]1O)c1ccccc1 (stereo partly specified)
[1]
  TGI: > 100 µM
[60]
  TGI: > 100 µM
[3]
  TGI: > 100 µM
[4]
  TGI: > 100 µM
[7]
  TGI: > 100 µM
[8]
  TGI: > 100 µM
[9]
  TGI: > 100 µM
[10]
  TGI: > 100 µM
[12]
  TGI: > 100 µM
[18]
  TGI: > 100 µM
[61]
  TGI: > 100 µM
[20]
  TGI: > 100 µM
[23]
  TGI: > 100 µM
[28]
  TGI: > 100 µM
[29]
  TGI: > 100 µM
[30]
  TGI: > 100 µM
[31]
  TGI: > 100 µM
[34]
  TGI: > 100 µM
[37]
  TGI: > 100 µM
[38]
  TGI: > 100 µM
[41]
  TGI: > 100 µM
[42]
  TGI: > 100 µM
[63]
  TGI: > 100 µM
[45]
  TGI: > 100 µM
[46]
  TGI: > 100 µM
[65]
  TGI: > 100 µM
[48]
  TGI: > 100 µM
[50]
  TGI: > 100 µM
[51]
  TGI: > 100 µM
[66]
  TGI: > 100 µM
[52]
  TGI: > 100 µM
[67]
  TGI: > 100 µM
[53]
  TGI: > 100 µM
[54]
  TGI: > 100 µM
[55]
  TGI: > 100 µM
[57]
  TGI: > 100 µM
